Test results: patent publication US11999676B2, “Vesicular monoamine transporter-2 ligands and their use in the treatment of psychostimulant abuse” (priority 2016, dated 2024)

How the values were obtained:
VMAT2 = VMAT2 (Rattus norvegicus (Rat), UniProt Q01827); assay: [3H]Dopamine ([3H]DA) uptake assay, vesicular preparation; format: biochemical; details: [3H]DA uptake, rat; read-out: VMAT2 (rat) Inhibition: Mean Ki ± Standard Deviation
hERG channel = hERG channel (Homo sapiens (Human), UniProt Q12809); assay: [3H]Dofetilide binding assay, HEK-293 cell membrane preparation; details: [3H]dofetilide, HEK-293 cell membranes; read-out: hERG Binding: Mean Ki ± Standard Deviation
Description: [^3H]Dofetilide binding assays were conducted using commercially available HEK-293 cell membranes which stably express the hERG channel. Membranes were suspended in assay buffer (50 mM Tris, 10 mM KCl, 1 mM MgCl2, pH 7.4) prior to the experiment. […] Aliquots of the HEK-293 cell membrane suspension which contained 5 μg membrane protein were added to tubes containing assay buffer, 5 nM [^3H]dofetilide and a range of concentrations of analog (10 nM-100 μM). Nonspecific binding was determined in the presence of amitriptyline (1 mM). Samples were incubated for 1 hr. at 24° C., followed by rapid filtration. […] The affinity for the [^3H]dofetilide binding site on the hERG channel expressed in the HEK-293 cellular membrane was determined from the analog concentration response curves.

[1] = Microsomal stability assay, human liver microsomes; details: for CLint scaled at 0.08 µM / half-life at 0.08 µM: both, human, pooled liver microsomes; for CLint scaled at 0.08 µM: pH 7.4, Microsomal stability assays: Clearance; for half-life at 0.08 µM: pH 7.4, Microsomal stability assays: Half-life
Description: Each plate holds triplicate samples of two controls (0.4 mM) and up to 14 compounds (0.08 mM) in rat and human liver microsomes. Aliquots of each well of the plate (175 μl of each well) were transferred from the master plate into 5 assay plates. For 0-hr time point, pre-cooled (4° C.) internal standard (437.5 μL, 2 μM caffeine in methanol) was added to the first plate before the reaction starts. NADPH regenerating system solution A (6.05 ml, Fisher Scientific, #NC9255727) was combined with NADPH regenerating system solution B (1.21 ml, Fisher Scientific, #NC9016235) in potassium phosphate buffer (15.8 ml, 0.1 M, pH 7.4, 37° C.). The resulting NADPH solution (43.8 μl) was added to each well of all the 96-well assay plates and mixed with pipette briefly making the final protein and compound concentrations respectively: 0.5 mg/ml, 0.08 μM (0.4 μM for controls). Plates were sealed, and all plates except the 0-hr plate were incubated at 37° C., shaken at a speed of 60 rpm. A single assay plate was tested at each time point: 0.5 hr, 1 hr, 2 hr, and 4 hr. At each time point, 437.5 μL of pre-cooled internal standard was added each well of the plate to quench the reaction. […] 120 μl supernatant was transferred to a 96-well plate, centrifuged again and analyzed by UPLC-MS (Waters Inc., Milford, MA). The compounds and internal standard were detected by selected ion recording (SIR).
The amount of material was measured as a ratio of peak area to the internal standard and graphed. Using the slope from the initial linear portion of this curve, the degradation rate constant is calculated using equation [1].

[2] = Microsomal stability assay, rat liver microsomes; details: for CLint scaled at 0.08 µM / half-life at 0.08 µM: female, Sprague-Dawley, rat, liver microsomes; for CLint scaled at 0.08 µM: pH 7.4, Microsomal stability assays: Clearance; for half-life at 0.08 µM: pH 7.4, Microsomal stability assays: Half-life

Chain of hERG channel (Q12809 whole entry): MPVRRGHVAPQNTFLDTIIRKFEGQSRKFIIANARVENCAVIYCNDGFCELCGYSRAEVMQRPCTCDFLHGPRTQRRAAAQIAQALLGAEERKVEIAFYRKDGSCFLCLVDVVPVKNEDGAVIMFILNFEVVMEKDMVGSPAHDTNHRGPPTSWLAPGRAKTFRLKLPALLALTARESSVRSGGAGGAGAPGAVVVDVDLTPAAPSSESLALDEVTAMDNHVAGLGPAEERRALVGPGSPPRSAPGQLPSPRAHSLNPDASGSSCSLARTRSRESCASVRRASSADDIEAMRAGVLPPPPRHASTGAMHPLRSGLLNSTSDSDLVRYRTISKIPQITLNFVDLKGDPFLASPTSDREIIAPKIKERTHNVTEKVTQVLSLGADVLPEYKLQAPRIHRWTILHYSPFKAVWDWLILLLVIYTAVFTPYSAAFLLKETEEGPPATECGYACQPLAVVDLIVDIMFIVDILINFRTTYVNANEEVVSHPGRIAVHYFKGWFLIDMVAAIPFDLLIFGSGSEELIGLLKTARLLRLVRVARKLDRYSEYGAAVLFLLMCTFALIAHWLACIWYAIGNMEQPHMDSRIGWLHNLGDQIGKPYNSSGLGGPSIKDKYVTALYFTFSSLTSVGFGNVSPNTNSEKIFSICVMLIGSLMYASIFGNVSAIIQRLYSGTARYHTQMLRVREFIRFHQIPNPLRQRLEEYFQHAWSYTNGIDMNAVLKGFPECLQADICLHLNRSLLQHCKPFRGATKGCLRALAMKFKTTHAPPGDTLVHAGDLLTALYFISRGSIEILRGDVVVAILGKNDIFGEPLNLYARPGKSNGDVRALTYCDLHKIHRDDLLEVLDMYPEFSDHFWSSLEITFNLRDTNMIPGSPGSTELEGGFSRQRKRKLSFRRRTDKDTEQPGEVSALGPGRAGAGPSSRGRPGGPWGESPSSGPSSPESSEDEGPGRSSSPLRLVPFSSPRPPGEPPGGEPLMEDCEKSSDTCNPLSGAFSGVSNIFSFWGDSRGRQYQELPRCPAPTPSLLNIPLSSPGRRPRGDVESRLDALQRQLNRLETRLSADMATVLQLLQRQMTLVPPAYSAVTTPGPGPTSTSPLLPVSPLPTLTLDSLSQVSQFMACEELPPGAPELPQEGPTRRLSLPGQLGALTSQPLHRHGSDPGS

Row | Structure (SMILES) | Ki (VMAT2) [nM] | Ki (hERG channel) [nM] | CLint scaled at 0.08 µM [1] [mL/min/kg] | half-life at 0.08 µM [1] [h] | CLint scaled at 0.08 µM [2] [mL/min/kg] | half-life at 0.08 µM [2] [h] | Microsomal stability assays: Clearance [2] [mL/min/kg] | Microsomal stability assays: Clearance [1] [mL/min/kg] | Microsomal stability assays: Half-life [1] [h] | Microsomal stability assays: Half-life [2] [min]
1 | CC(Cc1ccccc1)NCCCc1ccncc1 (stereo not drawn) [Compound 204] | 49.1 ± 3.51 | 8460 ± 4580 | 5.8 | 3.6 | – | – | – | – | – | –
2 | CC(Cc1ccc([N+](=O)[O-])cc1)NCCCc1ccc(Br)cc1 (stereo not drawn) [Compound 121] | 13.4 ± 4.8 | 80 ± 67.7 | < 5.2 | > 4 | – | – | – | – | – | –
3 | CC(Cc1ccc(F)cc1)NCCCc1ccc(-c2ccnn2C)cc1 (stereo not drawn) [Compound 166] | 46.5 ± 8.97 | 2200 ± 251 | 34.3 | 0.6 | – | – | – | – | – | –
4 | CC(Cc1ccc(NC=O)cc1)NCCCc1ccc(F)cc1 (stereo not drawn) [Compound 88] | 12.7 ± 2.85 | 738 ± 244 | 13.4 | 1.6 | – | – | – | – | – | –
5 | CC(Cc1ccc(N)cc1)NCCCc1ccccc1 (stereo not drawn) [Compound 105] | 26.8 ± 6.49 | 4610 ± 1010 | 29.6 | 0.7 | – | – | – | – | – | –
6 | CC(Cc1ccc(F)cc1)NCCCc1ccccc1 (stereo not drawn) [Compound 126] | 19.3 ± 5.14 | 2050 ± 773 | 11.5 | 1.8 | – | – | – | – | – | –
7 | CC(Cc1ccc(F)cc1)NCCCc1ccc(F)cc1 (stereo not drawn) [Compound 190] | 8.28 ± 0.736 | 789 ± 221 | 5.4 | 3.9 | – | – | – | – | – | –
8 | CC(Cc1ccc(NC=O)cc1)NCCCc1ccccc1 (stereo not drawn) [Compound 77] | 21 ± 1.1 | 1760 ± 630 | 11.2 | 1.9 | – | – | – | – | – | –
9 | CCOC(=O)c1ccc(CCCNC(C)Cc2ccc(F)cc2)cc1 (stereo not drawn) [Compound 158] | 42.8 ± 8.89 | 1410 ± 275 | – | – | 120 | 0.4 | – | – | – | –
10 | CC(Cc1ccc(-c2cncnc2)cc1)NCCCc1ccc(F)cc1 (stereo not drawn) [Compound 196] | 7.12 ± 1.59 | 402 ± 72.2 | – | – | 14.7 | 3.2 | – | – | – | –
11 | CC(Cc1ccc(F)cc1)NCCCc1ccc2[nH]ccc2c1 (stereo not drawn) [Compound 55] | 27.4 ± 8.93 | 1550 ± 630 | – | – | > 400 | < 0.1 | – | – | – | –
12 | CC(Cc1ccc(Br)cc1)NCCCc1ccncc1 (stereo not drawn) [Compound 174] | 52.1 ± 35.9 | 880 ± 251 | – | – | 126 | 0.4 | – | – | – | –
13 | CC(Cc1ccccc1)NCCCc1ccc(S)cc1 (stereo not drawn) [Compound 216] | 65.4 ± 23.4 | 4190 ± 1080 | – | – | 170 | 0.3 | – | – | – | –
14 | CC(Cc1ccccc1)NCCCc1ccc(I)cc1 (stereo not drawn) [Compound 215] | 6.86 ± 1.81 | 3040 ± 1370 | – | – | – | 0.3 | 148 | – | – | –
15 | CC(Cc1ccccc1)NCCCc1ccc(C(F)(F)F)cc1 (stereo not drawn) [Compound 194] | 27.7 ± 7.81 | 791 ± 270 | – | – | 138 | 0.3 | – | – | – | –
16 | CC(Cc1ccc(NC=O)cc1)NCCCc1ccc(F)cc1 (stereo not drawn) [Compound 87] | 12.7 ± 2.85 | 738 ± 244 | – | – | 13.3 | 3.5 | – | – | – | –
17 | CC(Cc1ccncc1)NCCCc1ccc(Br)cc1 (stereo not drawn) [Compound 168] | 41 ± 11.1 | 1780 ± 468 | 6 | 3.5 | – | – | – | – | – | –
18 | CC(Cc1ccc([N+](=O)[O-])cc1)NCCCc1ccc(F)cc1 (stereo not drawn) [Compound 120] | 9.85 ± 1.62 | 130 ± 25.6 | – | – | – | – | – | <5.20 | >4 | –
19 | CC(=O)Nc1ccc(CCCNC(C)Cc2ccc(F)cc2)cc1 (stereo not drawn) [Compound 66] | 32.5 ± 3.52 | 10100 ± 3350 | – | – | 30.7 | 1.5 | – | – | – | –
20 | CC(Cc1ccc(F)cc1)NCCCc1ccc(Br)cc1 (stereo not drawn) [Compound 146] | 22.1 ± 6.5 | 546 ± 199 | < 5.2 | > 4 | – | – | – | – | – | –
21 | FCC(Cc1ccc(F)cc1)NCCCc1ccc(Cl)cc1 (stereo not drawn) [Compound 150] | 39.1 ± 7.97 | 2340 ± 1070 | – | – | 540 | – | – | – | – | 6
22 | CC(Cc1ccc(F)cc1)NCCCc1ccc([N+](=O)[O-])cc1 (stereo not drawn) [Compound 160] | 14.3 ± 2.2 | 67.1 ± 14.7 | – | – | 119 | 0.4 | – | – | – | –
23 | CC(Cc1ccc([N+](=O)[O-])cc1)NCCCc1ccc(F)cc1 (stereo not drawn) [Compound 117] | 7.08 ± 1.29 | 206 ± 137 | – | – | 148 | 0.3 | – | – | – | –
24 | CC(Cc1ccc(F)cc1)NCCCc1ccc(Br)cc1 (stereo not drawn) [Compound 145] | 22.1 ± 6.5 | 506 ± 199 | – | – | 402 | – | – | – | – | 6
